# Tested on: Pseudomonas aeruginosa
# Experiment: Antibacterial activity against Pseudomonas aeruginosa CIP A22 after 24 hrs
# Format: functional
# Details: CIP A22, 24 h
row,Compound,MIC [µM]
1,C[N+](C)(CCCCCC[N+](C)(C)CC(=O)NCCC(F)(F)C(F)(F)C(F)(F)C(F)(F)C(F)(F)C(F)(F)F)CC(=O)NCCC(F)(F)C(F)(F)C(F)(F)C(F)(F)C(F)(F)C(F)(F)F.[Br-].[Br-],5.52
2,C[N+](C)(CCCCCCCCCCCC[N+](C)(C)CC(=O)NCCC(F)(F)C(F)(F)C(F)(F)C(F)(F)C(F)(F)C(F)(F)F)CC(=O)NCCC(F)(F)C(F)(F)C(F)(F)C(F)(F)C(F)(F)C(F)(F)F.[Br-].[Br-],2.76
3,C[N+](C)(CCC[N+](C)(C)CC(=O)NCCC(F)(F)C(F)(F)C(F)(F)C(F)(F)C(F)(F)C(F)(F)F)CC(=O)NCCC(F)(F)C(F)(F)C(F)(F)C(F)(F)C(F)(F)C(F)(F)F.[Br-].[Br-],5.19
4,C[N+](C)(CCCCCCCCCC[N+](C)(C)CC(=O)NCCC(F)(F)C(F)(F)C(F)(F)C(F)(F)C(F)(F)C(F)(F)F)CC(=O)NCCC(F)(F)C(F)(F)C(F)(F)C(F)(F)C(F)(F)C(F)(F)F.[Br-].[Br-],2.83
5,C[N+](C)(CCCC[N+](C)(C)CCOC(=O)NCCC(F)(F)C(F)(F)C(F)(F)C(F)(F)C(F)(F)C(F)(F)F)CCOC(=O)NCCC(F)(F)C(F)(F)C(F)(F)C(F)(F)C(F)(F)C(F)(F)F.[Br-].[Br-],3.69
6,C[N+](C)(CC[N+](C)(C)CC(=O)NCCC(F)(F)C(F)(F)C(F)(F)C(F)(F)C(F)(F)C(F)(F)F)CC(=O)NCCC(F)(F)C(F)(F)C(F)(F)C(F)(F)C(F)(F)C(F)(F)F.[Br-].[Br-],5.8
7,C[N+](C)(CCCCCCCC[N+](C)(C)CC(=O)NCCC(F)(F)C(F)(F)C(F)(F)C(F)(F)C(F)(F)C(F)(F)F)CC(=O)NCCC(F)(F)C(F)(F)C(F)(F)C(F)(F)C(F)(F)C(F)(F)F.[Br-].[Br-],2.89
8,C[N+](C)(CCCC[N+](C)(C)CCC(F)(F)C(F)(F)C(F)(F)C(F)(F)C(F)(F)C(F)(F)F)CCC(F)(F)C(F)(F)C(F)(F)C(F)(F)C(F)(F)C(F)(F)F.[Br-].[Br-],7.31
9,O=C(C[N+]12CC[N+](CC(=O)NCCC(F)(F)C(F)(F)C(F)(F)C(F)(F)C(F)(F)C(F)(F)F)(CC1)CC2)NCCC(F)(F)C(F)(F)C(F)(F)C(F)(F)C(F)(F)C(F)(F)F.[Br-].[Br-],5.82
10,C[N+](C)(C/C=C/C[N+](C)(C)CC(=O)NCCC(F)(F)C(F)(F)C(F)(F)C(F)(F)C(F)(F)C(F)(F)F)CC(=O)NCCC(F)(F)C(F)(F)C(F)(F)C(F)(F)C(F)(F)C(F)(F)F.[Br-].[Br-],3.67
11,C[N+](C)(CC(=O)NCCC(F)(F)C(F)(F)C(F)(F)C(F)(F)C(F)(F)C(F)(F)F)CC(O)C[N+](C)(C)CC(=O)NCCC(F)(F)C(F)(F)C(F)(F)C(F)(F)C(F)(F)C(F)(F)F.[Br-].[Br-],9.25
12,CCCCCCCCNC(=O)C[N+](C)(C)CCCC[N+](C)(C)CC(=O)NCCCCCCCC,51.2
13,CCCCCCCCCCCC[N+](C)(C)CCOc1ccccc1 [DOMIPHEN BROMIDE],40.8

# Results, then the molecule that gave them:
row,MIC [µM],Compound
1,4.59,C[N+](C)(CCCC[N+](C)(C)CSCCC(F)(F)C(F)(F)C(F)(F)C(F)(F)C(F)(F)C(F)(F)F)CSCCC(F)(F)C(F)(F)C(F)(F)C(F)(F)C(F)(F)C(F)(F)F.[Br-].[Br-]
2,5.94,C[N+](C)(CCCC[N+](C)(C)CC(=O)NCCC(F)(F)C(F)(F)C(F)(F)C(F)(F)C(F)(F)C(F)(F)F)CC(=O)NCCC(F)(F)C(F)(F)C(F)(F)C(F)(F)C(F)(F)C(F)(F)F.[Br-].[Br-]
3,5.38,C[N+](C)(CCCC[N+](C)(C)CCNC(=O)NCCC(F)(F)C(F)(F)C(F)(F)C(F)(F)C(F)(F)C(F)(F)F)CCNC(=O)NCCC(F)(F)C(F)(F)C(F)(F)C(F)(F)C(F)(F)C(F)(F)F.[Br-].[Br-]
4,4.95,C[N+](C)(CCSSCC[N+](C)(C)CC(=O)NCCC(F)(F)C(F)(F)C(F)(F)C(F)(F)C(F)(F)C(F)(F)F)CC(=O)NCCC(F)(F)C(F)(F)C(F)(F)C(F)(F)C(F)(F)C(F)(F)F.[Br-].[Br-]
5,1.88,C[N+](C)(CCCC[N+](C)(C)CCNC(=O)CCC(F)(F)C(F)(F)C(F)(F)C(F)(F)C(F)(F)C(F)(F)F)CCNC(=O)CCC(F)(F)C(F)(F)C(F)(F)C(F)(F)C(F)(F)C(F)(F)F.[Br-].[Br-]

# Tested on: not listed separately
# Experiment: Critical micelle concentration in aqueous potassium hydroxide assessed as breakpoint of conductivity by conductimeter
# Format: physicochemical
# Details: buffer
Compound,CMC [mM],solubility
C[N+](C)(CCCCCC[N+](C)(C)CC(=O)NCCC(F)(F)C(F)(F)C(F)(F)C(F)(F)C(F)(F)C(F)(F)F)CC(=O)NCCC(F)(F)C(F)(F)C(F)(F)C(F)(F)C(F)(F)C(F)(F)F.[Br-].[Br-],0.588,
C[N+](C)(CCCCCCCCCCCC[N+](C)(C)CC(=O)NCCC(F)(F)C(F)(F)C(F)(F)C(F)(F)C(F)(F)C(F)(F)F)CC(=O)NCCC(F)(F)C(F)(F)C(F)(F)C(F)(F)C(F)(F)C(F)(F)F.[Br-].[Br-],0.269,
C[N+](C)(CCC[N+](C)(C)CC(=O)NCCC(F)(F)C(F)(F)C(F)(F)C(F)(F)C(F)(F)C(F)(F)F)CC(=O)NCCC(F)(F)C(F)(F)C(F)(F)C(F)(F)C(F)(F)C(F)(F)F.[Br-].[Br-],0.546,
C[N+](C)(CCCCCCCCCC[N+](C)(C)CC(=O)NCCC(F)(F)C(F)(F)C(F)(F)C(F)(F)C(F)(F)C(F)(F)F)CC(=O)NCCC(F)(F)C(F)(F)C(F)(F)C(F)(F)C(F)(F)C(F)(F)F.[Br-].[Br-],0.296,
C[N+](C)(CCCC[N+](C)(C)CCOC(=O)NCCC(F)(F)C(F)(F)C(F)(F)C(F)(F)C(F)(F)C(F)(F)F)CCOC(=O)NCCC(F)(F)C(F)(F)C(F)(F)C(F)(F)C(F)(F)C(F)(F)F.[Br-].[Br-],0.54,
C[N+](C)(CC[N+](C)(C)CC(=O)NCCC(F)(F)C(F)(F)C(F)(F)C(F)(F)C(F)(F)C(F)(F)F)CC(=O)NCCC(F)(F)C(F)(F)C(F)(F)C(F)(F)C(F)(F)C(F)(F)F.[Br-].[Br-],0.591,
C[N+](C)(CCCCCCCC[N+](C)(C)CC(=O)NCCC(F)(F)C(F)(F)C(F)(F)C(F)(F)C(F)(F)C(F)(F)F)CC(=O)NCCC(F)(F)C(F)(F)C(F)(F)C(F)(F)C(F)(F)C(F)(F)F.[Br-].[Br-],0.361,
C[N+](C)(CCCC[N+](C)(C)CCC(F)(F)C(F)(F)C(F)(F)C(F)(F)C(F)(F)C(F)(F)F)CCC(F)(F)C(F)(F)C(F)(F)C(F)(F)C(F)(F)C(F)(F)F.[Br-].[Br-],2.39,
O=C(C[N+]12CC[N+](CC(=O)NCCC(F)(F)C(F)(F)C(F)(F)C(F)(F)C(F)(F)C(F)(F)F)(CC1)CC2)NCCC(F)(F)C(F)(F)C(F)(F)C(F)(F)C(F)(F)C(F)(F)F.[Br-].[Br-],0.466,
C[N+](C)(C/C=C/C[N+](C)(C)CC(=O)NCCC(F)(F)C(F)(F)C(F)(F)C(F)(F)C(F)(F)C(F)(F)F)CC(=O)NCCC(F)(F)C(F)(F)C(F)(F)C(F)(F)C(F)(F)C(F)(F)F.[Br-].[Br-],0.559,
C[N+](C)(CC(=O)NCCC(F)(F)C(F)(F)C(F)(F)C(F)(F)C(F)(F)C(F)(F)F)CC(O)C[N+](C)(C)CC(=O)NCCC(F)(F)C(F)(F)C(F)(F)C(F)(F)C(F)(F)C(F)(F)F.[Br-].[Br-],0.541,

# The next lines start with the values.
CMC [mM],solubility,Compound
,Insoluble,C[N+](C)(CCCC[N+](C)(C)CSCCC(F)(F)C(F)(F)C(F)(F)C(F)(F)C(F)(F)C(F)(F)F)CSCCC(F)(F)C(F)(F)C(F)(F)C(F)(F)C(F)(F)C(F)(F)F.[Br-].[Br-]
0.758,,C[N+](C)(CCCC[N+](C)(C)CC(=O)NCCC(F)(F)C(F)(F)C(F)(F)C(F)(F)C(F)(F)C(F)(F)F)CC(=O)NCCC(F)(F)C(F)(F)C(F)(F)C(F)(F)C(F)(F)C(F)(F)F.[Br-].[Br-]
0.523,,C[N+](C)(CCCC[N+](C)(C)CCNC(=O)NCCC(F)(F)C(F)(F)C(F)(F)C(F)(F)C(F)(F)C(F)(F)F)CCNC(=O)NCCC(F)(F)C(F)(F)C(F)(F)C(F)(F)C(F)(F)C(F)(F)F.[Br-].[Br-]
0.451,,C[N+](C)(CCSSCC[N+](C)(C)CC(=O)NCCC(F)(F)C(F)(F)C(F)(F)C(F)(F)C(F)(F)C(F)(F)F)CC(=O)NCCC(F)(F)C(F)(F)C(F)(F)C(F)(F)C(F)(F)C(F)(F)F.[Br-].[Br-]
0.547,,C[N+](C)(CCCC[N+](C)(C)CCNC(=O)CCC(F)(F)C(F)(F)C(F)(F)C(F)(F)C(F)(F)C(F)(F)F)CCNC(=O)CCC(F)(F)C(F)(F)C(F)(F)C(F)(F)C(F)(F)C(F)(F)F.[Br-].[Br-]

# From ChEMBL document CHEMBL1137709, “Enhanced activity of fluorinated quaternary ammonium surfactants against Pseudomonas aeruginosa” (Eur J Med Chem, 2009)
